The target in data set [1] is T1, recombinant human plasminogen activator inhibitor-1 (Homo sapiens, UniProt P05121).
T1 construct: purchased Molecular Innovations, Royal Oak, Mich
The data set is described as follows: Primary Screen for the PAI-1 Inhibition (residual tPA activity, chromogenic Spectrozyme-tPA). The data set is classed as biochemical. The note with it: 25 μM test compound; 140 nM PAI-1, 70 nM tPA, pH 6.6. As to the method:
Primary Screen for the PAI-1 Inhibition
Test compounds were dissolved in DMSO at a final concentration of 10 mM, then diluted 100× in physiologic buffer. The inhibitory assay was initiated by the addition of the test compound (1-100 μM final concentration, maximum DMSO concentration of 0.2%) in a pH 6.6 buffer containing 140 nM recombinant human plasminogen activator inhibitor-1 (Molecular Innovations, Royal Oak, Mich.). Following a 1 hour incubation at room temperature, 70 nM of recombinant human tissue plasminogen activator (tPA) was added, and the combination of the test compound, PAI-1 and tPA was incubated for an additional 30 minutes. Following the second incubation, Spectrozyme-tPA (American Diagnostica, Greenwich, Conn.), a chromogenic substrate for tPA, was added and absorbance read at 405 nm at 0 and 60 minutes. Relative PAI-1 inhibition is equal to the residual tPA activity in the presence of test compound and PAI-1. Control treatments included the complete inhibition of tPA by PAI-1 at the molar ratio employed (2:1), and the absence of any effect of the test compound on tPA alone.

Data set [2] deals with human PAI-1 (Homo sapiens, UniProt P05121). The data set is described as follows: Assay for Determining IC50 of Inhibition of PAI-1 (antibody detection of active PAI-1 bound to tPA-coated plate). The data set is classed as biochemical. The settings on record: human PAI-1 50 ng/ml, pH 7.5, 33B8 monoclonal antibody detection. Here is the method: Assay for Determining IC50 of Inhibition of PAI-1
This assay was based upon the non-SDS dissociable interaction between tPA and active PAI-1. Assay plates were initially coated with human tPA (10 μg/ml). The test compounds were dissolved in DMSO at 10 mM, then diluted with physiologic buffer (pH 7.5) to a final concentration of 1-50 μM. The test compounds were incubated with human PAI-1 (50 ng/ml) for 15 minutes at room temperature. The tPA-coated plate was washed with a solution of 0.05% Tween 20 and 0.1% BSA, then the plate was blocked with a solution of 3% BSA. An aliquot of the test compound/PAI-1 solution was then added to the tPA-coated plate, incubated at room temperature for 1 hour, and washed. Active PAI-1 bound to the plate was assessed by adding an aliquot of a 1:1000 dilution of the 33B8 monoclonal antibody against human PAI-1, and incubating the plate at room temperature for 1 hour (Molecular Innovations, Royal Oak, Mich.). […] The plate was incubated 45 minutes at room temperature, and color development was determined at OD405 nm. The quantitation of active PAI-1 bound to tPA at varying concentrations of the test compound was used to determine the IC50. Results are analyzed using a logarithmic best-fit equation. The assay sensitivity was 5 ng/ml of human PAI-1 as determined from a standard curve ranging from 0-100 ng/ml.

T1 sequence (P05121 24-402): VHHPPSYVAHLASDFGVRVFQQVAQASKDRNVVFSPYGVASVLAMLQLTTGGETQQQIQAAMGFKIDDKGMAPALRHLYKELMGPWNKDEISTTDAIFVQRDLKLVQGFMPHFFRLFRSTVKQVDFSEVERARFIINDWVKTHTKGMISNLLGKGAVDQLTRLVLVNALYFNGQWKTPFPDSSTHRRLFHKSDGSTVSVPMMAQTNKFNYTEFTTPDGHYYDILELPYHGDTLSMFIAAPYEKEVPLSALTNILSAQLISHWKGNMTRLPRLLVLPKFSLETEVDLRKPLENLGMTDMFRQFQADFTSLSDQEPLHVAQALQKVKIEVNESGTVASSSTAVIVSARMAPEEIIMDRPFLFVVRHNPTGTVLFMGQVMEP
Sequence of human PAI-1 (P05121 24-402): as above

Take `O=C(O)Cn1cc(Cc2cc(C(F)(F)F)cc(C(F)(F)F)c2)c2cc(-c3ccc(OC(F)(F)F)cc3)ccc21` [Example 2]: the melting point was 188 to 190 °C. Besides, the inhibition at 25 µM in data set [1] was 31%. In data set [2], the IC50 came out at 15.1 µM. Consider `O=C(O)Cn1cc(Cc2cc(C(F)(F)F)cc(C(F)(F)F)c2)c2cc(-c3ccc(Cl)cc3Cl)ccc21` [Example 3, [3-[3,5-bis(trifluoromethyl)benzyl]-5-(2,4-dichlorophenyl)-1H-indol-1-yl]acetic acid], for which the melting point is 150 to 155 °C. In addition, the inhibition at 25 µM in data set [1] is 100%. The compound `O=C(O)Cn1cc(Cc2cc(C(F)(F)F)cc(C(F)(F)F)c2)c2cc(-c3cccc(C(F)(F)F)c3)ccc21` [Example 4, {3-[3,5-bis(triflu romethyl)benzyl]-5-[3-(trifluoromethyl)phenyl]-1H-indol-1-yl}acetic acid] showed a melting point of 175 to 176 °C. Also, in data set [1], the inhibition at 25 µM was 35%. With `CC(c1ccccc1)c1cn(CC(=O)O)c2ccc(-c3cccc(C(F)(F)F)c3)cc12` (centres unmarked) [Example 6, [3-(1-Phenyl-ethyl)-5-(3-trifluoromethyl-phenyl)-indol-1-yl]acetic acid], in data set [1], the inhibition at 25 µM stood at 49%. Take `CC(c1cccs1)c1cn(CC(=O)O)c2ccc(-c3cccc(C(F)(F)F)c3)cc12` (centres unmarked) [Example 7, [3-(1-Thiophen-2-yl-ethyl)-5-(3-trifluoromethyl-phenyl)-indol-1-yl]acetic acid]: the inhibition at 25 µM in data set [1] turned out to be 47%.

As for `CC(c1cn(CC(=O)O)c2ccc(-c3cccc(C(F)(F)F)c3)cc12)C1CCCCC1` (centres unmarked) [Example 8, [3-(1-Cyclohexyl-ethyl)-5-(3-trifluoromethyl-phenyl)-indol-1-yl]acetic acid], the inhibition at 25 µM in data set [1] came out at 64%. On to `CC(C)c1ccc(Cc2cn(CC(=O)O)c3ccc(-c4cccc(C(F)(F)F)c4)cc23)cc1` [Example 9, [3-(4-Isopropyl-benzyl)-5-(3-trifluoromethyl-phenyl)-indol-1-yl]acetic acid], for which the inhibition at 25 µM in data set [1] is 26%. Take `CC(C)CC(C)c1cn(CC(=O)O)c2ccc(-c3ccc(Cl)cc3Cl)cc12` (centres unmarked) [Example 10, [5-(2,4-Dichloro-phenyl)-3-(1,3-dimethyl-butyl)-indol-1-yl]-acetic acid]: the inhibition at 25 µM in data set [1] is 48%.

Take `CC(c1ccccc1)c1cn(CC(=O)O)c2ccc(-c3ccc(Cl)cc3Cl)cc12` (centres unmarked) [Example 11, [5-(2,4-Dichloro-phenyl)-3-(1-phenyl-ethyl)-indol-1-yl]-acetic acid]: the inhibition at 25 µM in data set [1] came out at 26%. For the compound `CC(c1cn(CC(=O)O)c2ccc(-c3ccc(Cl)cc3Cl)cc12)C1CCCCC1` (centres unmarked) [Example 12, [3-(1-Cyclohelxy-ethyl)-5-(2,4-dichloro-phenyl)-indol-1-yl]-acetic acid], in data set [1], the “% Inhibition @ 25 μM” value was determined as 48%.

Broadly, the melting point is the temperature, or range, at which the solid turns liquid. The term inhibition denotes the relative decrease from the control value, in per cent. The IC50 is the concentration at which inhibition is half-maximal. Low values mean higher potency, high ones lower potency.

Values taken from patent US7348351B2, “Substituted 3-alkyl and 3-arylalkyl 1H-indol-1yl acetic acid derivatives as inhibitors of plasminogen activator inhibitor-1 (PAI-1)” (Wyeth, priority 2002, dated 2008).
